Data taken from patent US12275720B2, “Small molecule inhibitors of galectin-3” (BRISTOL MYERS SQUIBB, priority 2020, dated 2025).

What follows are compounds tested against His-tagged recombinant human Gal-3 (hGal-3) (Homo sapiens, UniProt P17931) (assay: Gal 3 HTRF Assay). Settings: HTRF assay (default), 15 nM hGal-3, 15 nM B-ASF; read-out: hGal3 IC50 (HTRF).
Type: binding
Experimental: • ASSAY BUFFER Composition: 25 mM HEPES, 100 mM NaCl, 0.005% Tween 20, 0.05% BSA prepared in sterile water (all reagents from Sigma). Controls: • Positive Control: 100% DMSO (1 μL)+His-tagged hGal-3 (20 μL)+B-ASF (20 μL)+Anti-His Terbium Antibody (5 μL)+Strep d2 Antibody (5 μL). • Negative Control: 100% DMSO (1 μL)+His-tagged hGal-3(20 μL)+Anti His Terbium Antibody (5 μL)+Strep d2 Antibody (5 μL). Stocks Preparation:
PROTOCOL: The Gal-3 assays were performed in 384 white Opti plates in three replicates at room temperature with gentle shaking at 250-300 rpm From the original stocks, […] working stock concentrations of His-tagged recombinant human Gal-3 (hGal-3) and that of B-ASF were prepared. From the working stock, 20 μL of hGal-3 (15 nM) and 20 μL B-ASF (15 nM) were added to the plates. In Negative Control, only hGal-3 was added. A concentration range of 50× working stocks were prepared for the compounds in 100% DMSO. Aliquots of 1 μL of the compounds were added to the wells and pre-incubated with 20 μL hGal-3 per well for 30 minutes Then 20 μL B-ASF were added and incubated for another 1 hour. To detect the signal, 5 μL (final conc. of 1.0 nM) terbium labelled Anti-His antibody was added and incubated for 30 min followed by adding 5 μL (final conc. of 20 nM) Streptavidin d2 and incubation for another 1 hour. The assay signal was detected using HTRF screen protocol (Excitation wavelength=340 nm, emission wavelength=615 nm/665 nm) on Envision 2104 Multilabel Reader. Data analysed using Toolset and Curve Master. Results are reported in the experimental section (IC50 in μM). All IC50 reported were generated using the HTRF assay except when specifically indicated.

His-tagged recombinant human Gal-3 (hGal-3), sequence (P17931 whole entry): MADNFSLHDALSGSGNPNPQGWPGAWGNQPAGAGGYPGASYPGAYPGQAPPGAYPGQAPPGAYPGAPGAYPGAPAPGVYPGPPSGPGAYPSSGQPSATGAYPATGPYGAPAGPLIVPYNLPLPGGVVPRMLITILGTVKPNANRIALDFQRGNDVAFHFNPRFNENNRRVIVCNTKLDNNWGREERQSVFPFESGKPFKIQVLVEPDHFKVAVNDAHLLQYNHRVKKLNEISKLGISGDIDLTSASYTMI

| IC50 [nM] | Compound |
| --- | --- |
| 570 | CO[C@@H]1[C@@H](n2cc(-c3cccc(F)c3)nn2)[C@@H](O)[C@@H](CO)O[C@H]1C(=O)N[C@@H]1CCC[C@H](n2cc3c(F)cccc3n2)[C@H]1O (single isomer, unassigned) [Example 8] |
| 30 | CO[C@@H]1[C@@H](n2cc(-c3cccc(F)c3)nn2)[C@@H](O)[C@@H](CO)O[C@H]1C(=O)N(C)[C@H]1COC[C@@H](n2cc(-c3cccc(F)c3)nn2)[C@@H]1O (single isomer, unassigned) [Example 21] |
| 20 | CO[C@@H]1[C@@H](n2cc(-c3cccc(F)c3)nn2)[C@@H](O)[C@@H](CO)O[C@H]1C(=O)N(C)[C@H]1CN(C)C[C@@H](n2cc(-c3cccc(F)c3)nn2)[C@@H]1O [Example 19, (2R,3R,4S,5R,6R)-4-(4-(3-fluorophenyl)-1H-1,2,3-triazol-1-yl)-N-((3S,4R,5R)-5-(4-(3-fluorophenyl)-1H-1,2,3-triazol-1-yl)-4-hydroxy-1-methylpiperidin-3-yl)-5-hydroxy-6-(hydroxymethyl)-3-methoxy-N-methyltetrahydro-2H-pyran-2-carboxamide] |
| > 10000 | CO[C@@H]1[C@@H](n2cc(-c3cccc(F)c3)nn2)[C@@H](O)[C@@H](CO)O[C@H]1C(=O)N(C)[C@H]1COC[C@@H](n2ncc3cc(F)cnc32)[C@@H]1O [Example 22a, (2R,3R,4S,5R,6R)-N-((3S,4R,5R)-5-(5-fluoro-1H-pyrazolo[3,4-b]pyridin-1-yl)-4-hydroxytetrahydro-2H-pyran-3-yl)-4-(4-(3-fluorophenyl)-1H-1,2,3-triazol-1-yl)-5-hydroxy-6-(hydroxymethyl)-3-methoxy-N-methyltetrahydro-2H-pyran-2-carboxamide] |
| 27000 | (2R,3R,4S,5R,6R)-4-(4-(3-fluorophenyl)-1H-1,2,3-triazol-1-yl)-N-((1R,2S,3S)-3-(5-(3-fluorophenyl)-1H-1,2,3-triazol-1-yl)-2-hydroxycyclohexyl)-5-hydroxy-6-(hydroxymethyl)-3-methoxytetrahydro-2H-pyran-2-carboxamide [Example 6a] |
| 900 | (2R,3R,4S,5R,6R)-4-(4-(3-fluorophenyl)-1H-1,2,3-triazol-1-yl)-N-((1R,2S,3S)-3-(5-(3-fluorophenyl)-1H-1,2,3-triazol-1-yl)-2-hydroxycyclohexyl)-5-hydroxy-6-(hydroxymethyl)-3-methoxytetrahydro-2H-pyran-2-carboxamide [Example 6b] |
| 5500 | (2R,3R,4S,5R,6R)-4-(4-(3-fluorophenyl)-1H-1,2,3-triazol-1-yl)-N-((1S,2R,3R)-3-(4-(3-fluorophenyl)-1H-1,2,3-triazol-1-yl)-2-hydroxycyclohexyl)-5-hydroxy-6-(hydroxymethyl)-3-methoxy-N-methyltetrahydro-2H-pyran-2-carboxamide [Example 10a] |
| 91 | (2R,3R,4S,5R,6R)-4-(4-(3-fluorophenyl)-1H-1,2,3-triazol-1-yl)-N-((1S,2R,3R)-3-(4-(3-fluorophenyl)-1H-1,2,3-triazol-1-yl)-2-hydroxycyclohexyl)-5-hydroxy-6-(hydroxymethyl)-3-methoxy-N-methyltetrahydro-2H-pyran-2-carboxamide [Example 10b] |
| 1800 | (2R,3R,4S,5R,6R)-4-(4-(3-fluorophenyl)-1H-1,2,3-triazol-1-yl)-N-((3R,4S,5S)-5-(4-(3-fluorophenyl)-1H-1,2,3-triazol-1-yl)-4-hydroxypiperidin-3-yl)-3,5-dihydroxy-6-(hydroxymethyl)-N-methyltetrahydro-2H-pyran-2-carboxamide [Example 18a] |
| 50 | (2R,3R,4S,5R,6R)-4-(4-(3-fluorophenyl)-1H-1,2,3-triazol-1-yl)-N-((3R,4S,5S)-5-(4-(3-fluorophenyl)-1H-1,2,3-triazol-1-yl)-4-hydroxypiperidin-3-yl)-3,5-dihydroxy-6-(hydroxymethyl)-N-methyltetrahydro-2H-pyran-2-carboxamide [Example 18b] |
| 3500 | (2R,3R,4S,5R,6R)-4-(4-(3-fluorophenyl)-1H-1,2,3-triazol-1-yl)-N-((3R,4S,5S)-5-(4-(3-fluorophenyl)-1H-1,2,3-triazol-1-yl)-4-hydroxypiperidin-3-yl)-5-hydroxy-6-(hydroxymethyl)-3-methoxy-N-methyltetrahydro-2H-pyran-2-carboxamide [Example 16a] |
| 44 | (2R,3R,4S,5R,6R)-4-(4-(3-fluorophenyl)-1H-1,2,3-triazol-1-yl)-N-((3R,4S,5S)-5-(4-(3-fluorophenyl)-1H-1,2,3-triazol-1-yl)-4-hydroxypiperidin-3-yl)-5-hydroxy-6-(hydroxymethyl)-3-methoxy-N-methyltetrahydro-2H-pyran-2-carboxamide [Example 16b] |
| 36000 | (2R,3R,4S,5R,6R)-4-(4-(3-fluorophenyl)-1H-1,2,3-triazol-1-yl)-N-((3R,4S,5S)-5-(4-(3-fluorophenyl)-1H-1,2,3-triazol-1-yl)-4-hydroxytetrahydro-2H-pyran-3-yl)-5-hydroxy-6-(hydroxymethyl)-3-methoxytetrahydro-2H-pyran-2-carboxamide [Example 20a] |
| 640 | (2R,3R,4S,5R,6R)-N-((1R,2S,3S)-3-(4-fluoro-1H-indazol-1-yl)-2-hydroxycyclohexyl)-4-(4-(3-fluorophenyl)-1H-1,2,3-triazol-1-yl)-5-hydroxy-6-(hydroxymethyl)-3-methoxytetrahydro-2H-pyran-2-carboxamide [Example 7a] |
| 23000 | (2R,3R,4S,5R,6R)-N-((1R,2S,3S)-3-(4-fluoro-1H-indazol-1-yl)-2-hydroxycyclohexyl)-4-(4-(3-fluorophenyl)-1H-1,2,3-triazol-1-yl)-5-hydroxy-6-(hydroxymethyl)-3-methoxytetrahydro-2H-pyran-2-carboxamide [Example 7b] |
| 5200 | (2R,4R,5R,6R)-4-(4-(3-fluorophenyl)-1H-1,2,3-triazol-1-yl)-N-((3R,4S,5S)-5-(4-(3-fluorophenyl)-1H-1,2,3-triazol-1-yl)-4-hydroxypiperidin-3-yl)-5-hydroxy-6-(hydroxymethyl)-N-methyltetrahydro-2H-pyran-2-carboxamide [Example 17a] |
| 130 | (2R,4R,5R,6R)-4-(4-(3-fluorophenyl)-1H-1,2,3-triazol-1-yl)-N-((3R,4S,5S)-5-(4-(3-fluorophenyl)-1H-1,2,3-triazol-1-yl)-4-hydroxypiperidin-3-yl)-5-hydroxy-6-(hydroxymethyl)-N-methyltetrahydro-2H-pyran-2-carboxamide [Example 17b] |

| Compound | IC50 [nM] |
| --- | --- |
| (2R,3R,4S,5R,6R)-4-(4-(3-fluorophenyl)-1H-1,2,3-triazol-1-yl)-N-((1S,2R,3R)-3-(3-(3-fluorophenyl)-1H-1,2,4-triazol-1-yl)-2-hydroxycyclohexyl)-5-hydroxy-6-(hydroxymethyl)-3-methoxytetrahydro-2H-pyran-2-carboxamide [Example 9a] | 500 |
| (2R,3R,4S,5R,6R)-4-(4-(3-fluorophenyl)-1H-1,2,3-triazol-1-yl)-N-((1S,2R,3R)-3-(3-(3-fluorophenyl)-1H-1,2,4-triazol-1-yl)-2-hydroxycyclohexyl)-5-hydroxy-6-(hydroxymethyl)-3-methoxytetrahydro-2H-pyran-2-carboxamide [Example 9b] | > 100000 |
| (2R,3R,4S,5R,6R)-4-(4-(3-fluorophenyl)-1H-1,2,3-triazol-1-yl)-N-((3R,4S,5S)-5-(4-(3-fluorophenyl)-1H-1,2,3-triazol-1-yl)-4-hydroxytetrahydro-2H-pyran-3-yl)-5-hydroxy-6-(hydroxymethyl)-3-methoxytetrahydro-2H-pyran-2-carboxamide [Example 20b] | 90 |
| (2R, 3R, 4S, 5R, 6R)-4-(4-(3-fluorophenyl)-1H-1,2,3-triazol-1-yl)-N-((1S,2R,3R)-3-(4-(3-fluorophenyl)-1H-1,2,3-triazol-1-yl)-2-hydroxycyclohexyl)-5-hydroxy-6-(hydroxymethyl)-3-methoxytetrahydro-2H-pyran-2-carboxamide [Example 1a] | 290 |

Each compound was assayed against T1, hGalectin-3 (Homo sapiens, UniProt P17931) (assay: Gal-3 ELISA Assay (hGalectin-3 neutralization binding assay)). Settings: ASF-coated plate, 15 nM hGalectin-3, read-out: hGal3 IC50 (ELISA).
T1 construct: made in house
T1 sequence (P17931 whole entry): as above

| Compound | IC50 [nM] |
| --- | --- |
| (2R, 3R, 4S, 5R, 6R)-4-(4-(3-fluorophenyl)-1H-1,2,3-triazol-1-yl)-N-((1S,2R,3R)-3-(4-(3-fluorophenyl)-1H-1,2,3-triazol-1-yl)-2-hydroxycyclohexyl)-5-hydroxy-6-(hydroxymethyl)-3-methoxytetrahydro-2H-pyran-2-carboxamide [Example 1a] | 700 |
| (2R, 3R, 4S, 5R, 6R)-4-(4-(3-fluorophenyl)-1H-1,2,3-triazol-1-yl)-N-((1S,2R,3R)-3-(4-(3-fluorophenyl)-1H-1,2,3-triazol-1-yl)-2-hydroxycyclohexyl)-5-hydroxy-6-(hydroxymethyl)-3-methoxytetrahydro-2H-pyran-2-carboxamide [Example 1b] | 16000 |
